From patent publication US20060134212A1, “Lercanidipine immediate release compositions” (Forest Laboratories, Inc., priority 2004, published 2006)

Experiments:
[1] = species not given; cited from earlier work
Caco-2 cell monolayers = assay: Caco-2 cell analysis: lercanidipine permeation with different concentrations of Polysorbate 80 (Tween 80); assay type: in vitro ADME
Source text: The objective of this study was to investigate the effects of surfactant on the permeability characteristics of lercanidipine across Caco-2 cell monolayers. Caco-2 cell monolayers have been used as a model of intestinal mucosa for predicting oral drug absorption (P. Artursson. Epithelial transport of drugs in cell culture. I: A model for studying the passive diffusion of drugs over intestinal absorptive (Caco-2) cells. JPharm (1990)).
Transport experiments for the permeation characteristics of lercanidipine in the presence of different concentrations of Polysorbate 80 (Tween 80) were conducted as follows. […] The samples were collected and analyzed for lercanidipine.
The permeation characteristics lercanidipine across Caco-2 cell monolayers in the presence of different concentrations of Tween 80 were analyzed using four dosing solutions. […]
Papp values will be calculated using the equation: Papp=ΔQ/Δt/(A*C0) where ΔQ/Δt is the linear appearance rate of mass in the receiver solution, A is the filter/cell surface area (1 cm^2 for 12-well system), and C0 is the initial concentration of the test compounds.

Caco-2 cell = Caco-2 cell apparatus; cited from earlier work
[2] = cited from earlier work
[3] = cited from earlier work; remark: listed apart in the source

COC(=O)C1=C(C)NC(C)=C(C(=O)OC(C)(C)CN(C)CCC(c2ccccc2)c2ccccc2)C1c1cccc([N+](=O)[O-])c1.Cl (stereo not shown) [Form II]
plasma concentration (AUCo-t), Form II compared to Form I [1]: higher plasma concentration | time to maximum concentration (Tmax), one form compared to the other [1]: delayed time of maximum concentration

COC(=O)C1=C(C)NC(C)=C(C(=O)OC(C)(C)CN(C)CCC(c2ccccc2)c2ccccc2)C1c1cccc([N+](=O)[O-])c1.Cl (stereo not shown) [Form I]
time to maximum concentration (Tmax), one form compared to the other [1]: shorter time to maximum concentration

COC(=O)C1=C(C)NC(C)=C(C(=O)OC(C)(C)CN(C)CCC(c2ccccc2)c2ccccc2)C1c1cccc([N+](=O)[O-])c1 (stereo not shown) [lercanidipine, methyl 1,1,N-trimethyl-N-(3,3-diphenylpropyl)-2-aminoethyl 1,4-dihydro-2,6-dimethyl-4-(3-nitrophenyl)pyridine-3,5-dicarboxylate]
increase in Caco-2 permeability upon the addition of surfactant (Caco-2 cell monolayers; 50 μg/ml Lerc in HBSS, pH 6.8, Tween 80 added vs none): three fold increase in permeability | change of Caco-2 permeability at higher surfactant (Caco-2 cell monolayers; surfactant in transport buffer increased ten fold from 0.02 to 0.2): permeability of lercanidipine decreases | Papp (Caco-2 cell): about 0.5×10^−7 cm/s | time of peak plasma level following dosage ([2]; oral administration): 1 to 3 h | increase of amount of lercanidipine absorbed with food ([2]; simultaneous intake of food (especially high fat) vs administration without food): between three and four times | solubility ([3]; at pH 5 and above): less than 20 μg/ml | aqueous solubility ([3]; water): about 5 μg/ml
